Assay [1] has as its target T1, hCRTH2 receptor (Homo sapiens, UniProt Q9Y5Y4).
T1 construct: expressed in transfected cells; host or cells: HEK293 (recombinant HEK293-hCRTH2), membrane fragments
T1 sequence (Q9Y5Y4 1-395): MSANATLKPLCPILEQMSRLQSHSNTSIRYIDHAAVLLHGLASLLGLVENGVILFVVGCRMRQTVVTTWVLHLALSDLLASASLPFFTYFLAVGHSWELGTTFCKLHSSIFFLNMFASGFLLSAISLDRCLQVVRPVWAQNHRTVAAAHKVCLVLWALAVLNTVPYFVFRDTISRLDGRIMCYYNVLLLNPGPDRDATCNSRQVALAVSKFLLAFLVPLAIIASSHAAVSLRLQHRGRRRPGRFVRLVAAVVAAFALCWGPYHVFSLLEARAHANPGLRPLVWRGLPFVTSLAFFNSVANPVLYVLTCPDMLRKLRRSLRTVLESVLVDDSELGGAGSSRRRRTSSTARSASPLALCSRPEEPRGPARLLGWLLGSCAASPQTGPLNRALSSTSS
The assay can be described thus: hCRTH2 receptor membranes radioligand displacement assay. Conditions: displacement of 3H-PGD2 (2.5 nM), HEK293-hCRTH2 membrane fragments, Binding-Buffer with 0.1% BSA. As to the method:
Preparation of hCRTH2 Receptor Membranes and Radioligand Displacement Assay:
(§1) First, recombinant HEK293-hCRTH2 cells were detached from culture plates into 5 ml buffer A/plate (Buffer A: 5 mM Tris, 1 mM MgCl2-6H2O pH=7.4) using a rubber policeman. Cells were then transferred into centrifugation tubes and centrifuged for 5 min at 400 g. The cell pellet was resuspended in the same buffer and tubes were frozen at 80° C. Cells were thawed and membrane fragments were generated by homogenization using a polytron homogenizer (30 seconds). The membrane fragments were then centrifuged at 3000 g for 20 minutes and resuspended in buffer C (Buffer C: 75 mM Tris, 25 mM MgCl2, 250 mM Saccharose pH 7.4). Aliquots of membrane fragments were stored at −20° C.
(§2) Binding assay was performed in a final assay volume of 250 μl. First, 25 μl of test compound, previously diluted in Binding-Buffer (Binding-Buffer: 50 mM Tris-Base, 100 mM NaCl, 1 mM EDTA, 0.1% BSA (protease free), 0.01% NaN3, 10 mM MnCl2 pH 7.0) was placed into each well. After addition of 75 μl Binding-Buffer, 50 μl of the radioligand ^3H-PGD2 (at 2.5 nM (220.000 dpm/well) from ANAWA ART0662) was added to each well. Binding assay was started by addition of 100 μl CRTH2 membrane fragments, reaching a final concentration of 20 μg/well. For non-specific binding, PGD2 was added to the reaction mixture to […] final concentration. This assay mix was incubated for 90 minutes at room temperature and then filtered through a GF/C filter 96-well plate which was pre-soaked for 3 hours in 0.5% polyethyleneimine (PEI). The filter-wells were washed three times with ice cold Binding-Buffer. Then, 40 μl of Microscint-40 (Packard) was added to each well and the retained radioactivity quantified in a Topcount (Packard).

For assay [2], the target named is T1, hCRTH2 receptor. The assay can be described thus: Radioligand displacement assay in presence of human serum albumin (HSA). To be noted: displacement of 3H-PGD2, Binding-Buffer with 0.5% human serum albumin instead of 0.1% BSA. As to the method:
as §1, §2
Radioligand Displacement Assay-Human Serum Albumin (HSA):
Radioligand displacement assay in presence of human serum albumin (HSA) was performed as described above, with following modifications. Binding-Buffer-HSA: Binding-buffer+0.5% Sigma Albumin from Human serum A1887 (instead of 0.1% BSA). A volume of 25 μl test compound, previously diluted in Binding-Buffer-HSA was placed into each well. After addition of 75 μl Binding-Buffer-HSA, 50 μl of ^3H-PGD2 (at 2.5 nM (220.000 dpm/well) from ANAWA ART0662) was added to each well. Remaining protocol was identical as described above.

In assay [3] the test system is eosinophils (PGD2-induced shape change). Kind of assay: Eosinophil shape change assay with human plasma. The class given is cell-based. Conditions: human polymorphonuclear cells, 50% human plasma, activated with PGD2 100 nM, flow cytometry forward-scatter. As to the method:
Eosinophil Shape Change Assay with Human Plasma
After obtaining informed consent, blood samples were drawn by venipuncture according to the protocol approved by the ethics committee of Basel, Switzerland. Polymorphonuclear leukocytes (containing eosinophils, basophils and neutrophils) were isolated using the Polymorphprep™ method (Axis-Shield). In brief, anticoagulated whole blood was layered onto a Polymorphprep gradient (density 1.113 g/ml) and centrifuged at 500 g for 30 min. The polymorphonuclear cell fraction was harvested and depleted for erythrocytes by hypotonic saline lysis.
The polymorphonuclear cells were resuspended in assay buffer (1×PBS with Ca^2+/Mg^2+ supplemented with 0.1% BSA, 10 mM HEPES, and 10 mM Glucose, pH 7.4) at 5×10^6 cells/ml and stained with anti-CD49d-APC ((APC=Allophycocyanin) for 1 hour at RT. Test compounds, at various concentrations, were preincubated 10 min in human plasma (anticoagulated with a thrombin inhibitor). Then, human plasma was added to the polymorphonuclear cells to 50% of final assay volume with polymorphonuclear cells at 4×10^6 cells/ml. After incubation for 10 minutes at 37° C., the polymorphonuclear cells were activated for 5 min at 37° C. by addition of PGD2 at 100 nM final concentration. Activation was stopped by addition of 0.5 ml paraformaldehyde (1%).
Immediately after fixation with paraformaldehyde, the samples were analyzed by FACSCanto flow cytometer (BD Biosciences) and target cells were identified by their forward-scatter (FSC) and side-scatter (SSC) characteristics. Eosinophils were identified by the anti-CD49d-APC signal and their characteristic side-scatter (SSC) profile. Shape change responses, indicative of eosinophil activation, were quantified as the percent of cells with an increased forward-scatter.

The structures appear in SMILES notation.

For the molecule `CN(c1ncc(Cl)cn1)[C@H]1CCc2c(c3nc(F)ccc3n2CC(=O)O)C1` [Example 7, (S)-2-(8-((5-chloropyrimidin-2-yl)(methyl)amino)-2-fluoro-6,7,8,9-tetrahydro-5H-pyrido[3,2-b]indol-5-yl)acetic acid], the values for the IC50 (on hCRTH2 receptor [1]; on hCRTH2 receptor [2]; in assay [3]) were 5.6 nM, 5 nM and 3.1 nM, respectively.
In the same order, the values of `O=C(O)Cn1c2c(c3nc(F)ccc31)C[C@@H](Nc1ncc(Cl)cn1)CC2` [Example 8, (S)-2-(8-((5-chloropyrimidin-2-yl)amino)-2-fluoro-6,7,8,9-tetrahydro-5H-pyrido[3,2-b]indol-5-yl)acetic acid] are 19 nM, 22 nM and 32 nM.

(Values after US9879006B2, “Azaindole acetic acid derivatives and their use as prostaglandin D2 receptor modulators” (IDORSIA PHARMACEUTICALS LTD, priority 2014, dated 2018).)
